{
  "source": "patent US9241996B2",
  "about": "“Photochemical internalisation of kinase inhibitors” (PCI BIOTECH AS, priority 2008, dated 2016)",
  "key": {"[1]": {"system": "A-431 human skin carcinoma", "test": "Growth inhibition (Coulter counting, survival fraction) after PDT with TPPS2a, AG1478 and the combination (Example 3)", "format": "cell-based", "conditions": "for synergy/antagonism value F: p=0.05", "method": "The studies were performed using the EGFR positive cell line A-431 human skin carcinoma (ATCC, CRL 1555). The A-431 cells were subcultured two or three times a week in DMEM (Bio Whitaker Europe, Velviers, Belgium). Media were supplied with 10% fetal calf serum (FCS) (GIBCO BRL, Paisley, UK), 100 U/ml penicillin, 100 U/ml streptomycin (Sigma, St. Loice, MO) and 2 mM glutamine (Bio Whittaker, Velviers, Belgium). The cells were grown and incubated in 75 cm^2 flasks (Nunc, Roskilde, Denmark) at 37° C. in a humidified atmosphere containing 5% CO2.\n(§1) A-431 cells were seeded out and left to fasten for 6 hrs, or longer as described for the different combination treatment regimes with Tyrphostin AG1478, before an 18 hour incubation with 0.1 ug/ml LumiTrans (TPPS2a, meso-tetraphenylporphine with two sulfonate groups on adjacent phenyl rings) (PCI Biotech AS, Oslo, Norway). The cells were then washed twice with drug free medium and chased in new drug free medium for 4 hrs to wash the TPPS2a off the plasma membrane. Cells were then exposed to blue light from LumiSource (PCT Biotech AS) consisting of 4 light tubes delivering light with λ=[…], maximum at 435 nm and irradiance=13.5 mW/cm^2 at different doses as indicated in the figures.\nGrowth inhibition measurements were carried out after incubation of the cells for 72 hrs with different concentrations of AG1478 directly after exposure to light. Cell counting was performed with an in-house made Coulter counter after trypsination and resuspension in PBS. Two parallels of each sample were made, and the experiments were reproduced twice at least.\nFor each experiment the survival fraction (SF) of cells was found by dividing the number of treated cells by the average number of untreated cells in the two parallels. The expected additive effect was computed as SFadd=SFPDT×SFTKI where SFPDT and SFTKI refers to the observed effect after PDT or TKI treatment alone. SFadd was then compared to the observed effect of the combined treatment, SFcomb, using the synergy/antagonism value F F=log SFadd/log SFComb=log SFTKI+log SFPDT−log SFcorab\nAntagonistic effects would result in negative F values. Significant deviations of F from zero were established through t-tests."}, "EGFR": {"target": "T1, EGFR (Homo sapiens, UniProt P00533)", "T1 construct": "time dependent effects on total and phosphorylated EGFR after PDT˜LD50, AG1478 (TKI)˜LD50 and the combination treatment in A-431 cells; endogenous in cells; host or cells: A-431 human skin carcinoma cells (ATCC, CRL 1555)", "T1 sequence (P00533 25-1210)": "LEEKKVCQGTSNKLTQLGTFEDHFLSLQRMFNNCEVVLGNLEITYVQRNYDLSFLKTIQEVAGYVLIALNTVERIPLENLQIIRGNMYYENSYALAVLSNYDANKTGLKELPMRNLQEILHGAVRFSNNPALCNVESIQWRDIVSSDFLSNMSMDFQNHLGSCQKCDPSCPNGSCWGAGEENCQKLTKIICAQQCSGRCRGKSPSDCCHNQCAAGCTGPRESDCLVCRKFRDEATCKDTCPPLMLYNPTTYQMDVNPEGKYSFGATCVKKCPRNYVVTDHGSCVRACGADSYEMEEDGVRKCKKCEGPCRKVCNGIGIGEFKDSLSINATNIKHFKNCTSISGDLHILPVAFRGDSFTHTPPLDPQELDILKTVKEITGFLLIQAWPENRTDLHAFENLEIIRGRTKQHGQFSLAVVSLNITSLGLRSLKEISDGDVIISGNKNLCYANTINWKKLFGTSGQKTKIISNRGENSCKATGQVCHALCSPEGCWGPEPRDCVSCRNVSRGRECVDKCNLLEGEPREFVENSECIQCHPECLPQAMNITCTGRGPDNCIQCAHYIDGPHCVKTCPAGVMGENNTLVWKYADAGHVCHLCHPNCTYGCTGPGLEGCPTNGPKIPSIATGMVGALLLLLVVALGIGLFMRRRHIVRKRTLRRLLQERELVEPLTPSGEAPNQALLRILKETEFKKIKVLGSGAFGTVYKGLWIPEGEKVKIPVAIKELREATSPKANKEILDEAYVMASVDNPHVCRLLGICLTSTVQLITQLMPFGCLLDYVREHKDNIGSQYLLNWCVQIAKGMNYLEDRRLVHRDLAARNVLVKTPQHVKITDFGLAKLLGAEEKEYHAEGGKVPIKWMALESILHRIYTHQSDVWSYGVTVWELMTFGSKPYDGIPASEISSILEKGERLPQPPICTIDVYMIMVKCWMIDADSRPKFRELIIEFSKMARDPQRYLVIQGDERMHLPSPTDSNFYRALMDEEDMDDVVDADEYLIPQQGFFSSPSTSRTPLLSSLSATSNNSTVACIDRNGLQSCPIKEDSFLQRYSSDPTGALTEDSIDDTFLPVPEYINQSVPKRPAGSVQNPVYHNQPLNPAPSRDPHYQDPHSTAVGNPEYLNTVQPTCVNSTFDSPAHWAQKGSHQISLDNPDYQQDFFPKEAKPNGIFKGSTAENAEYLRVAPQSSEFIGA", "test": "Western blotting of total and phosphorylated EGFR after PDT, AG1478 and the combination", "format": "cell-based", "method": "as §1\nAt indicated times after light exposure the cell-medium was removed and cells were incubated for 2 minutes with 100 ng/ml EGF. Cells were then placed on ice and the sample preparation was performed as described before (Weyergang et al., 2007, Biochem. Pharmacol., 74, p226-235). The same amount of lysed cells from each sample, as measured by the absorption of nucleic acids at 260 nm, was subjected to gel electrophoresis on 12% SDS/polyacrylamide gels and blotted to Hybond-P PVDF membranes (Amersham Biosciences, Amersham Place, UK). Immunodetection was carried out using antibodies from Cell Signal Technology (Cell Signalling Technology Beverly, Mass.); EGFR antibody (#2232), Phospho-EGFR antibody (#2236), Anti-mouse IgG, HRP-linked Antibody (#7076) Anti-rabbit IgG, HRP-linked Antibody (#7074). ECL Plus Western blotting Detection Reagents, STORM and Image Quant from GE Healthcare (GE Healthcare, Amersham Place, UK) was used to detect protein bands on the membrane."}, "[2]": {"system": "multi-drug resistant NCI-ADR-RES cancer cell line", "test": "CellTiter-Blue cell survival after PCI (TPCS2a, LumiSource illumination) with TKI, NCI-ADR-RES", "format": "cell-based", "conditions": "for pIC50: Homo sapiens, NCI/ADR-RES, read-out: nilotinib dose needed to achieve 50% cell killing", "method": "TPCS2a was diluted into growth medium at 0.4 μg/ml (NCI-H460) or 0.8 μg/ml (NCI-ADR-RES) and 25 μl was added to each test well (final assay concentrations 0.2 μg/ml and 0.4 μg/ml, respectively).\nThe plates were washed 6 times with 50 μl wash buffer using an EMBLA 384-well plate washer.\nThe plates were washed as before."}, "[3]": {"conditions": "at typical therapeutic doses per patient per day; cited from earlier work"}, "[4]": {"system": "NCI-H460 human lung cancer cell line", "test": "CellTiter-Blue cell survival after PCI (TPCS2a, LumiSource illumination) with TKI, NCI-H460", "conditions": "for pIC50: Homo sapiens, read-out: nilotinib dose needed to achieve 50% cell killing"}, "[5]": {"system": "A431 human epithelial carcinoma cell line", "test": "Cell survival by Coulter Counter after TPCS2a photochemical treatment and imatinib (Example 1)", "format": "cell-based", "method": "Cells from the A431 human epithelial carcinoma cell line (75,000 cells/well, 1.5 mL/well) were seeded into 6-well plates (Nunc, Denmark), incubated for 5 hours, then 0.1 μg/mL TPCS2a was added and the cells were further incubated for 18 h (5% v/v CO2, 37° C. in DMEM medium with penicillin 100 U/mL, Glutamine 2 mM, Streptomycin 100 μg/mL). The cells were washed twice with medium (1 mL/well), incubated for 4 hours (37° C., 5% v/v CO2) in serum-containing medium and illuminated for 1, 2 or 4 minutes as shown in FIG. 2.\nThe cells were washed twice with Trypsin EDTA (200 μL/well) and incubated for 5 minutes (400 μL/well), then 1.5 mL medium was added and the mixture transferred to 10 mL tubes and centrifuged for 3 minutes at 1000 rpm. After removing the medium, 1 mL PBS (Phosphate Buffered Saline) was added and the solution mixed thoroughly. 750 μL was transferred to a beaker with 20 mL PBS and the amount of viable cells was determined with a Coulter Counter apparatus."}, "A431 cells": {"system": "A431 cells", "test": "Cell survival by MTT assay after TPCS2a photochemical treatment and imatinib (Example 2)", "format": "cell-based, human", "conditions": "imatinib up to 25 μM", "method": "A431 cells (2500 cells/well, 100 μL/well) were seeded into 96-well plates (Nunc, Denmark) and incubated for 5 hours, then 0.1 μg/mL TPCS2a was added and incubated for 18 h (5% v/v CO2, 37° C., DMEM medium with penicillin 100 U/mL, Glutamine 2 mM, Streptomycin 100 μg/mL). […] After a further 72 hours incubation, cell survival was measured by the MTT assay.\nThe MTT method is based on reduction of a water-soluble tetrazolium salt (MTT) to a purple, insoluble formazan product by mitochondrial dehydrogenases present in living, metabolically active cells. 100 μL medium containing 0.25 μg MTT was added to the cells, followed by 1 h and 30 min of incubation (37° C., 5% v/v CO2). The resulting formazan crystals were dissolved by adding 100 μl DMSO (Sigma, Mo., USA) per well. The 96 well plate was read by a Multiscan EX micro plate reader (Labsystems, Finland) with a 570 nm band pass filter."}},
  "note": "pIC50: −log10 of the molar value. Like-named read-outs stand apart in the source and are kept apart here.",
  "data": [
    {"compound": "COc1cc2ncnc(Nc3cccc(Cl)c3)c2cc1OC", "note": "[AG1478, Tyrphostin AG1478]", "values": [
      {"measurement": "synergy/antagonism value F", "setting": "[1]; 4 uM AG1478 with PDT", "value": "0.18±0.09"},
      {"measurement": "synergy/antagonism value F", "setting": "[1]; 5 uM AG1478 with PDT", "value": "0.17±0.08"},
      {"measurement": "average survival fraction, TKI treatment only", "setting": "[1]; AG1478 72 hrs, mean of three independent experiments (FIG. 6: 4 and 5 μM TKI)", "value": 0.41},
      {"measurement": "average survival fraction, two treatments combined", "setting": "[1]; AG1478 administrated directly after light exposure (PDT), mean of three independent experiments", "value": 0.16},
      {"measurement": "synergy/antagonism value F, mean and st. error", "setting": "[1]; AG1478 between 1 and 5 μM with PDT, p=0.005", "value": "0.15 ± 0.05"},
      {"measurement": "synergy/antagonism parameter F of the experiments", "setting": "[1]; AG1478 with PDT, three independent experiments", "value": "positive and statistically significant from 0"},
      {"measurement": "calculated additive effect of the two treatments (SFadd)", "setting": "[1]; SFPDT×SFTKI", "value": 0.24},
      {"measurement": "EGFR phosphorylation", "setting": "EGFR; 4 μM AG1478 alone, 1-4 hrs, A-431 cells", "value": "strong attenuation of EGFR phosphorylation"},
      {"measurement": "EGFR phosphorylation, combination therapy", "setting": "EGFR; PDT (LD50) and AG1478, A-431 cells", "value": "same decrease in EGFR phosphorylation as that observed with the AG1478 treatment alone"}
    ]},
    {"compound": "O=S(=O)(O)c1ccc(-c2c3nc(c(-c4ccc(S(=O)(=O)O)cc4)c4ccc([nH]4)c(-c4ccccc4)c4nc(c(-c5ccccc5)c5ccc2[nH]5)C=C4)C=C3)cc1", "note": "[PDT, meso-tetraphenylporphine with two sulfonate groups on adjacent phenyl rings]", "values": [
      {"measurement": "average survival fraction, PDT treatment only", "setting": "[1]; TPPS2a 0.1 ug/ml and blue light, mean of three independent experiments", "value": 0.61},
      {"measurement": "phosphorylated EGFR after PDT alone", "setting": "EGFR; 1-4 hrs after PDT with LD50, A-431 cells", "value": "No decrease in phosphorylated EGFR was observed"},
      {"measurement": "phospho-EGFR after PDT alone", "setting": "EGFR; measured 1 hour after PDT, doses reducing relative viability up to 10% of untreated, A-431 cells", "value": "did not result in a pronounced reduction"}
    ]},
    {"compound": "C#Cc1cccc(Nc2ncnc3cc(OCCOC)c(OCCOC)cc23)c1", "note": "[erlotinib]", "values": [
      {"measurement": "erlotinib dose at which 20% cell killing was achieved", "setting": "[2]; 2 min illumination, TPCS2a 0.4 μg/ml", "value": "about 100 μM"},
      {"measurement": "erlotinib dose at which 20% cell killing was achieved", "setting": "[2]; 3 min illumination, TPCS2a 0.4 μg/ml", "value": "about 100 μM"},
      {"measurement": "erlotinib dose at which 20% cell killing was achieved", "setting": "[2]; 4 min illumination, TPCS2a 0.4 μg/ml", "value": "about 10 μM"},
      {"measurement": "typical blood concentrations", "setting": "[3]", "value": "1 to 10", "unit": "µM"},
      {"measurement": "erlotinib dose needed to induce 30% cell killing", "setting": "[4]; 2 min illumination, TPCS2a 0.2 μg/ml", "value": 14, "unit": "µM"},
      {"measurement": "erlotinib dose needed to induce 30% cell killing", "setting": "[4]; 3 min illumination, TPCS2a 0.2 μg/ml", "value": 4, "unit": "µM"},
      {"measurement": "potentiation of the effect by photochemical internalisation", "setting": "[4]; erlotinib, NCI-H460, 3 min versus no illumination", "value": 10, "unit": "times"},
      {"measurement": "erlotinib dose needed to induce 30% cell killing", "setting": "[4]; no illumination", "value": 43, "unit": "µM"}
    ]},
    {"compound": "Cc1ccc(NC(=O)c2ccc(CN3CCN(C)CC3)cc2)cc1Nc1nccc(-c2cccnc2)n1", "note": "[imatinib]", "values": [
      {"measurement": "cytotoxicity versus photochemical treatment alone", "setting": "[5]; imatinib 5×10^-6 M, TPCS2a 0.1 μg/mL, illuminated 1, 2 or 4 minutes, 72 hour incubation", "value": "substantially higher cytotoxicity"},
      {"measurement": "effect on cell survival", "setting": "[5]; imatinib 5×10^-6 M, without illumination, TPCS2a-treated A431 cells, 72 hour incubation", "value": "no significant effect on cell survival"},
      {"measurement": "cytotoxicity of imatinib alone", "setting": "A431 cells; 0 s illumination, 72 hours", "value": "only modest cytotoxicity even at the highest dose"},
      {"measurement": "cytotoxic effect with illumination", "setting": "A431 cells; TPCS2a 0.1 μg/mL, 60 or 120 s illumination, corrected for photochemical treatment alone", "value": "illumination increased the cytotoxic effect of imatinib in a light dose-dependent manner"}
    ]},
    {"compound": "Cc1cn(-c2cc(NC(=O)c3ccc(C)c(Nc4nccc(-c5cccnc5)n4)c3)cc(C(F)(F)F)c2)cn1", "note": "[nilotinib]", "values": [
      {"measurement": "pIC50", "setting": "[2]; 0 h, 0 min illumination", "value": "~4.70"},
      {"measurement": "pIC50", "setting": "[2]; 4 min, 4 min illumination, TPCS2a 0.4 μg/ml", "value": "~5.00"},
      {"measurement": "typical blood concentrations", "setting": "[3]", "value": "1 to 5", "unit": "µM"},
      {"measurement": "pIC50", "setting": "[4]; NCI-H460, 0 h", "value": 5.22},
      {"measurement": "pIC50", "setting": "[4]; NCI-H460, 5 min", "value": "~5.77"}
    ]},
    {"compound": "tetraphenyl chlorin disulfonate [TPCS2a]", "values": [
      {"measurement": "cell survival, illumination alone", "setting": "[5]; TPCS2a 0.1 μg/mL, illuminated 1, 2 or 4 minutes, no imatinib", "value": "cell survival decreases with increasing illumination time in a dose-dependent manner"}
    ]}
  ]
}
